Species on record: Rattus norvegicus
Experiment: DrugMatrix - Regimen: Daily Repeat
Type: toxicity, organism-based, Sprague-Dawley
Set-up: regimen Daily Repeat, gender Male, age 6-8 weeks
Details: in vivo, po, route oral GAVAGE, vehicle 100 % WATER; for ABSOLUTE BASOPHIL / ABSOLUTE EOSINOPHIL / ABSOLUTE LYMPHOCYTE / ABSOLUTE MONOCYTE / ABSOLUTE SEGMENTED NEUTROPHIL / BASOPHIL / EOSINOPHIL / ERYTHROCYTE COUNT / HEMATOCRIT / HEMOGLOBIN / LEUKOCYTE COUNT / LYMPHOCYTE / MEAN CORPUSCULAR HEMOGLOBIN / MEAN CORPUSCULAR HEMOGLOBIN CONCENTRATION / MEAN CORPUSCULAR VOLUME / MONOCYTE / NEUTROPHIL / NUCLEATED RED BLOOD CELLS / PLATELET COUNT: tissue Blood; for ALANINE AMINOTRANSFERASE / ALBUMIN / ALKALINE PHOSPHATASE / ASPARTATE AMINOTRANSFERASE / BLOOD UREA NITROGEN / CARBON DIOXIDE / CHLORIDE / CHOLESTEROL / CREATINE PHOSPHOKINASE / CREATININE / GLUCOSE / LACTATE DEHYDROGENASE / LIPASE / PHOSPHORUS / POTASSIUM / SODIUM / TOTAL BILIRUBIN / TOTAL PROTEIN / URIC ACID: tissue Plasma
[1] = 0 mg/kg, 72 h, dose level Control, time 3 day
[2] = 0 mg/kg, 120 h, dose level Control, time 5 day
[3] = 60 mg/kg, 72 h, dose level Low, time 3 day
[4] = 60 mg/kg, 120 h, dose level Low, time 5 day

ClC(Cl)Cl [CHLOROFORM]
ABSOLUTE BASOPHIL [1]: 0 CELLS/uL | ABSOLUTE EOSINOPHIL [1]: 86.33 CELLS/uL | ABSOLUTE LYMPHOCYTE [1]: 12090.17 CELLS/uL | ABSOLUTE MONOCYTE [1]: 166.67 CELLS/uL | ABSOLUTE SEGMENTED NEUTROPHIL [1]: 1090.17 CELLS/uL | BASOPHIL [1]: 0% | EOSINOPHIL [1]: 0.67% | ERYTHROCYTE COUNT [1]: 5.57 x10E6/uL | HEMATOCRIT [1]: 35.33% | HEMOGLOBIN [1]: 13.83 G/DL | LEUKOCYTE COUNT [1]: 13.43 x10E3/uL | LYMPHOCYTE [1]: 89.83% | MEAN CORPUSCULAR HEMOGLOBIN [1]: 24.88 pg | MEAN CORPUSCULAR HEMOGLOBIN CONCENTRATION [1]: 39.15 G/DL | MEAN CORPUSCULAR VOLUME [1]: 63.52 fL | MONOCYTE [1]: 1.17% | NEUTROPHIL [1]: 8.33% | NUCLEATED RED BLOOD CELLS [1]: 0 /100WBC | PLATELET COUNT [1]: 1181.33 x10E3/uL | ALANINE AMINOTRANSFERASE [1]: 48.33 u/L | ALBUMIN [1]: 4.1 G/DL | ALKALINE PHOSPHATASE [1]: 395 u/L | ASPARTATE AMINOTRANSFERASE [1]: 81.83 u/L | BLOOD UREA NITROGEN [1]: 15.83 mg/dL | CARBON DIOXIDE [1]: 24.17 mmol/L | CHLORIDE [1]: 103.83 MEQ/L | CHOLESTEROL [1]: 63.67 mg/dL | CREATINE PHOSPHOKINASE [1]: 372.83 u/L | CREATININE [1]: 0.18 mg/dL | GLUCOSE [1]: 173.83 mg/dL | LACTATE DEHYDROGENASE [1]: 188.33 u/L | LIPASE [1]: 9.5 u/L | PHOSPHORUS [1]: 11.95 mg/dL | POTASSIUM [1]: 5.99 MEQ/L | SODIUM [1]: 144.43 MEQ/L | TOTAL BILIRUBIN [1]: 0.15 mg/dL | TOTAL PROTEIN [1]: 5.95 G/DL | URIC ACID [1]: 1.82 mg/dL | ABSOLUTE BASOPHIL [2]: 0 CELLS/uL | ABSOLUTE EOSINOPHIL [2]: 26.67 CELLS/uL | ABSOLUTE LYMPHOCYTE [2]: 7583.83 CELLS/uL | ABSOLUTE MONOCYTE [2]: 131.33 CELLS/uL | ABSOLUTE SEGMENTED NEUTROPHIL [2]: 674.83 CELLS/uL | BASOPHIL [2]: 0% | EOSINOPHIL [2]: 0.33% | ERYTHROCYTE COUNT [2]: 5.78 x10E6/uL | HEMATOCRIT [2]: 36.48% | HEMOGLOBIN [2]: 14.03 G/DL | LEUKOCYTE COUNT [2]: 8.42 x10E3/uL | LYMPHOCYTE [2]: 89.83% | MEAN CORPUSCULAR HEMOGLOBIN [2]: 24.3 pg | MEAN CORPUSCULAR HEMOGLOBIN CONCENTRATION [2]: 38.52 G/DL | MEAN CORPUSCULAR VOLUME [2]: 63.15 fL | MONOCYTE [2]: 1.67% | NEUTROPHIL [2]: 8.17% | NUCLEATED RED BLOOD CELLS [2]: 0 /100WBC | PLATELET COUNT [2]: 1186.67 x10E3/uL | ALANINE AMINOTRANSFERASE [2]: 50.17 u/L | ALBUMIN [2]: 4.07 G/DL | ALKALINE PHOSPHATASE [2]: 367.5 u/L | ASPARTATE AMINOTRANSFERASE [2]: 81.67 u/L | BLOOD UREA NITROGEN [2]: 16.17 mg/dL | CARBON DIOXIDE [2]: 32.33 mmol/L | CHLORIDE [2]: 101.5 MEQ/L | CHOLESTEROL [2]: 65.33 mg/dL | CREATINE PHOSPHOKINASE [2]: 255.33 u/L | CREATININE [2]: 0.17 mg/dL | GLUCOSE [2]: 139.33 mg/dL | LACTATE DEHYDROGENASE [2]: 95 u/L | LIPASE [2]: 10.5 u/L | PHOSPHORUS [2]: 10.38 mg/dL | POTASSIUM [2]: 6.11 MEQ/L | SODIUM [2]: 145.55 MEQ/L | TOTAL BILIRUBIN [2]: 0.17 mg/dL | TOTAL PROTEIN [2]: 5.98 G/DL | URIC ACID [2]: 0.93 mg/dL | ABSOLUTE BASOPHIL [3]: 0 CELLS/uL | ABSOLUTE EOSINOPHIL [3]: 102.33 CELLS/uL | ABSOLUTE LYMPHOCYTE [3]: 13682.67 CELLS/uL | ABSOLUTE MONOCYTE [3]: 170.33 CELLS/uL | ABSOLUTE SEGMENTED NEUTROPHIL [3]: 1778 CELLS/uL | BASOPHIL [3]: 0% | EOSINOPHIL [3]: 0.67% | ERYTHROCYTE COUNT [3]: 5.57 x10E6/uL | HEMATOCRIT [3]: 35.2% | HEMOGLOBIN [3]: 13.87 G/DL | LEUKOCYTE COUNT [3]: 15.73 x10E3/uL | LYMPHOCYTE [3]: 86.67% | MEAN CORPUSCULAR HEMOGLOBIN [3]: 24.87 pg | MEAN CORPUSCULAR HEMOGLOBIN CONCENTRATION [3]: 39.37 G/DL | MEAN CORPUSCULAR VOLUME [3]: 63.2 fL | MONOCYTE [3]: 1% | NEUTROPHIL [3]: 11.67% | NUCLEATED RED BLOOD CELLS [3]: 0 /100WBC | PLATELET COUNT [3]: 1237 x10E3/uL | ALANINE AMINOTRANSFERASE [3]: 53 u/L | ALBUMIN [3]: 3.97 G/DL | ALKALINE PHOSPHATASE [3]: 363.67 u/L | ASPARTATE AMINOTRANSFERASE [3]: 98.67 u/L | BLOOD UREA NITROGEN [3]: 15.33 mg/dL | CARBON DIOXIDE [3]: 23.33 mmol/L | CHLORIDE [3]: 103.33 MEQ/L | CHOLESTEROL [3]: 70.67 mg/dL | CREATINE PHOSPHOKINASE [3]: 579.33 u/L | CREATININE [3]: 0.13 mg/dL | GLUCOSE [3]: 155.67 mg/dL | LACTATE DEHYDROGENASE [3]: 507.67 u/L | LIPASE [3]: 9 u/L | PHOSPHORUS [3]: 12.8 mg/dL | POTASSIUM [3]: 5.78 MEQ/L | SODIUM [3]: 143.9 MEQ/L | TOTAL BILIRUBIN [3]: 0.2 mg/dL | TOTAL PROTEIN [3]: 5.67 G/DL | URIC ACID [3]: 1.83 mg/dL | ABSOLUTE BASOPHIL [4]: 0 CELLS/uL | ABSOLUTE EOSINOPHIL [4]: 47.67 CELLS/uL | ABSOLUTE LYMPHOCYTE [4]: 10405 CELLS/uL | ABSOLUTE MONOCYTE [4]: 114.67 CELLS/uL | ABSOLUTE SEGMENTED NEUTROPHIL [4]: 899.33 CELLS/uL | BASOPHIL [4]: 0% | EOSINOPHIL [4]: 0.33% | ERYTHROCYTE COUNT [4]: 6.07 x10E6/uL | HEMATOCRIT [4]: 37.63% | HEMOGLOBIN [4]: 14.23 G/DL | LEUKOCYTE COUNT [4]: 11.47 x10E3/uL | LYMPHOCYTE [4]: 90% | MEAN CORPUSCULAR HEMOGLOBIN [4]: 23.5 pg | MEAN CORPUSCULAR HEMOGLOBIN CONCENTRATION [4]: 37.87 G/DL | MEAN CORPUSCULAR VOLUME [4]: 62.07 fL | MONOCYTE [4]: 1% | NEUTROPHIL [4]: 8.67% | NUCLEATED RED BLOOD CELLS [4]: 0 /100WBC | PLATELET COUNT [4]: 1244.67 x10E3/uL | ALANINE AMINOTRANSFERASE [4]: 54.33 u/L | ALBUMIN [4]: 4.27 G/DL | ALKALINE PHOSPHATASE [4]: 299.67 u/L | ASPARTATE AMINOTRANSFERASE [4]: 84.33 u/L | BLOOD UREA NITROGEN [4]: 16 mg/dL | CARBON DIOXIDE [4]: 30.67 mmol/L | CHLORIDE [4]: 102 MEQ/L | CHOLESTEROL [4]: 59.67 mg/dL | CREATINE PHOSPHOKINASE [4]: 401 u/L | CREATININE [4]: 0.22 mg/dL | GLUCOSE [4]: 139.33 mg/dL | LACTATE DEHYDROGENASE [4]: 140 u/L | LIPASE [4]: 10 u/L | PHOSPHORUS [4]: 10.83 mg/dL

Source: ChEMBL document CHEMBL3885881, “DrugMatrix”
